Results published in patent US8063212B2, “Imidazolidinonyl aminopyrimidine compounds for the treatment of cancer” (Eli Lilly and Company, priority 2006, dated 2011).
pEC50, pIC50: −log10 of the molar value. Where two headings read alike, the source gives them in different places.

How the values were obtained:
HeLa Cells = assay: pHH3(S10), Mitotic Cells, and DNA Content Assays; assay type: cell-based; settings: Homo sapiens, 23 hours exposure
Protocol: HeLa Cells from the American Type Culture Collection (ATCC) are plated at 200 cells/well in 96 well […] BIOCOAT™ plates, and are incubated in MEM (Minimum Essential Medium, e.g., GIBCO, catalog #11095) with 10% FBS (Fetal Bovine Serum) in 37° C., 5% CO2 for 24 hours. Cells are treated by adding compound (in 0.25% DMSO) to the medium, dosing at 10 points across the range […] to 0.0098 μM. After 23 hours exposure to the compounds, cells are fixed, for example with the PREFER™ fixative [Anatech LTD., Catalog #414] for 30 min then are permeablized with 0.1% TRITON® X100 in phosphate buffered saline (PBS) solution for 15 min. Cells are washed 3 times with PBS then digested with 50 μg/mL RNAse. Primary antibody, phosphohistone H3 (Upstate Cat#06-570), is added at 1:500 in PBS with 1% bovine serum albumin (BSA) to the cells over night at 4° C. After 3 PBS washes, cells are incubated with Alexa488 labeled secondary antibody (Invitrogen cat #A11008) for 1 hour at room temperature. Again they are washed 3 times with PBS, and then 15 μM propidium iodide (Molecular Probes cat #P3566) is added for 30 min to stain nuclei. Fluorescence Plates are scanned with ACUMEN EXPLORER™ [Laser-scanning fluorescence microplate cytometer (comprising of 488 nm argon ion laser excitation and multiple photomultiplier tube detection), manufactured by TTP LABTECH LTD] to measure phosphohistone H3, DNA content and mitotic cells as measured by DNA condensation. Image analysis are based on cellular fluorescent signals for identifying cells in different subpopulations. pHH3(S10) positive cells are identified by mean intensity at 500-530 nm above the threshold. Total intensity at 655-705 nm from propidium iodide/DNA is used to identify individual cells (cells with DNA content from 2N to 4N) and subpopulations in cell cycle (2N cells, 4N cells). Peak intensity at 575-640 nm is used to identify DNA condensation that is used as the marker to identify mitotic cells among 4N cells. […] The ECso is determined by curve fitting to a four parameter logistic for each output using ACTIVITY BASE™.

Plk1 = target: T1, Plk1 (Homo sapiens, UniProt P53350); assay: Plk1 Inhibition Assay; assay type: biochemical; settings: Absolute IC50, 5.0 μM ATP, GST-Cdc25c (1-206) substrate, 60 min; MSR 3.6
T1 construct: made in house; host or cells: baculovirus-infected Sf9 cells, treated with okadaic acid before harvest; the substrate was made in E. coli BL21
T1 sequence (P53350 whole entry): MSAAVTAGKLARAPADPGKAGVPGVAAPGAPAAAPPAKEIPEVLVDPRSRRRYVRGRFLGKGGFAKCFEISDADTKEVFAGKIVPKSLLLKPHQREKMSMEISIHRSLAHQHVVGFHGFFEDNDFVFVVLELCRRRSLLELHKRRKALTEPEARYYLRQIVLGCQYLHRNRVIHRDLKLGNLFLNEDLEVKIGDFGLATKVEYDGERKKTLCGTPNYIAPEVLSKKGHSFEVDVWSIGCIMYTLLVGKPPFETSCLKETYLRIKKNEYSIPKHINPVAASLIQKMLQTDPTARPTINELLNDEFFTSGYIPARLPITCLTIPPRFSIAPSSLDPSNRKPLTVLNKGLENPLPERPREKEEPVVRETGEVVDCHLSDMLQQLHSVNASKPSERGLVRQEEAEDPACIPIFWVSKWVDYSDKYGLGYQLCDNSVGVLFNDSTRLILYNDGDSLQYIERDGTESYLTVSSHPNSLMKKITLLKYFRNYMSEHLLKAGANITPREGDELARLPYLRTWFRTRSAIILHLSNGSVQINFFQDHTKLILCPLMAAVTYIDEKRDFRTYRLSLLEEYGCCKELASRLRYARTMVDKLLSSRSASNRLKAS
From the text: Human Plk1 cDNA, which may be obtained from a number of sources, such as Incyte (accession number: NM_005030), may be directly linked at one of its termini with a polynucleotide sequence expressing a His6 tag, such as the C-terminal FLAG-His6 tag, and inserted into an appropriate expression vector, such as a pFastBac™ vector (Invitrogen) and transfected into an appropriate system, such as baculovirus similar to what has been reported by Yue-Wei Qian, et al., Science, 282, 1701 (1998) for xPlkk1. If a viral expression system is used, then the virus (e.g., baculovirus bearing a Plk1-Flag-His6 tag polynucleotide construct) is infected into a culture of a suitable host cell, such as Sf9 cells. […]
Plk1 kinase reactions contain Plk1-Flag-His6 tag fusion enzyme (0.2 ng/μL) in a buffer containing 50 mM HEPES, pH 7.3, 1.0 mM dithiothreitol, 5.0 μM ATP, 10 mM MgCl2, 0.01% TRITON® X-100, 0.4 μCi ^33P-ATP, and 0.06 μg/μL GST-Cdc25c (1-206) peptide. […] Wells are dried before addition of 40 μL of MicroScint™ 20 (Packard) and then counted on a Wallac MICROBETA® Jet. The percentage inhibition values from the 10-point concentration response data are subsequently analyzed, for example, using ACTIVITY BASE™ software (IDBS), using a 4-parameter logistic equation. Absolute IC50 values are calculated from the resulting curve fit.

HCT116 cells = assay: Antiproliferative Assay; assay type: cell-based; settings: Homo sapiens, HCT-116, 72 hours, Alamar Blue, n=3, MSR 3.1
Protocol: The effects of compounds on cell proliferation can be determined using cells and cell proliferation methods well-known in the art (Robert C. Squatrito et al., Gynecological Oncology, 58, 101-105, (1995)). For example, HCT116 cells, which may be obtained from the American Type Culture Collection, may be seeded at ˜2000 cells/well in 96-well plates and allowed to attach overnight in a humidified CO2 incubator at 37° C. Following the 20-24 hour incubation, half-log serially diluted compounds are added and the plates are returned to the incubator. After an appropriate length of exposure (e.g., 72 hours), cell proliferation is estimated using well-known methods. In one method, 10 μL of a tetrazolium salt, such as Alamar Blue™ is added to the cell plates. After an appropriate exposure to the dye, fluorescence (530 nm excitation, 580 nm emission) is determined. The resulting IC50 has an MSR of 3.1.

[1] = in man; cited from earlier work
HCT116 murine xenografts = settings: HCT116 murine xenograft; cited from earlier work
[2] = system: NClH460 murine xenografts; settings: NClH460 murine xenograft; cited from earlier work
A549 murine xenografts = settings: A549 murine xenograft; cited from earlier work

Row | pEC50 (HeLa Cells; n=1, MSR 2.5, read-out: mitotic EC50) | pEC50 (HeLa Cells; n=1, MSR 2.6, read-out: pHH3(s10) EC50) | pEC50 (HeLa Cells; n=2, MSR 2.4, read-out: DNA content EC50) | pIC50 (Plk1) | pIC50 (HCT116 cells) | SMILES | clearance (CL) [1] [mL/min] | dose limiting toxicity [1] | activity in preclinical model (HCT116 murine xenografts) | activity in preclinical model [2] | activity in preclinical model (A549 murine xenografts)
1 | 7.66 | 7.62 | 7.46 | ~7.60 | 7.36 | CN(C)Cc1cnc(F)cc1-c1cccc2cc(-c3ccnc(NCCN4CCNC4=O)n3)sc12 [Example 4, 1-(2-{4-[7-(5-((Dimethylamino)methyl)-2-fluoropyridin-4-yl)benzo[b]thiophen-2-yl]pyrimidin-2-ylamino}ethyl)imidazolidin-2-one] | – | – | – | – | –
2 | – | – | – | – | – | CC[C@@H]1C(=O)N(C)c2cnc(Nc3ccc(C(=O)NC4CCN(C)CC4)cc3OC)nc2N1C1CCCC1 [BI-2536] | > 1000 | dose limited by myelosupression | demonstrated activity | demonstrated activity | demonstrated activity
